Assay results from patent US20100190849A1, “Novel Clerodanes and Methods for Repelling Arthropods” (priority 2006, published 2010).
Marks after values point to notes of the source that are not given here.

Experiments:
S. richteri = test: Two-choice digging bioassay, head-to-head against octanoic acid; format: in vivo, Solenopsis richteri; conditions: 25.00 ppm; both S. richteri colonies; FIGS. 3 and 4
Method: (§1) The repellency of the two terpenoids, callicarpenal and intermedeol, against workers of red imported fire ants, Solenopsis invicta Buren, black imported fire ants, Solenopsis rickeri Forel, and a hybrid of these two species was evaluated using multiple-choice digging bioassays (Tables 9 & 10). […] Callicarpenal and intermedeol were compared with octanoic acid, a known fire ant repellant, at the 25.00 ppm level using two-choice digging bioassays (FIGS. 3 and 4).
(§2) Head-to-head comparison on repellency of callicarpenal and intermedeol against octanoic acid: The bioassay apparatus was similar as described above, except a smaller Petri dish (8.7×2.3 cm) was used and only two choices were presented: one was sand treated with callicarpenal or intermedeol and the other with octanoic acid. Two choices were opposite each other across the center of the Petri dish and each was 3.0 cm away from the center. All compounds were tested at a 25.00 ppm level. Sand preparation was similar as described above. Ants from the same colonies as above were used in this experiment. There were five replications for each pair of comparisons. A paired t-test (critical P-value=0.05) was used to compare the mean amount of sand removed between two tubes.

[1] = tested on: hybrid (S. invicta×S. richteri); test: Multiple-choice digging bioassay, fire ant workers; format: in vivo
Method: as §1
(§3) Ants: Two Solenopsis invicta colonies were collected in Sharkey County, Mississippi, and two Solenopsis richteri colonies were collected in Granada County, Mississippi. Two colonies of the hybrid (S. invicta×S. richteri) colony were collected in Sunflower County, Mississippi. Fire ant mounds were shoveled and placed in 19-L plastic buckets. The inside wall of the bucket was then coated with baby powder (Cumberland Swan Holdings, Inc., Smyrna, Tenn.) to prevent ant escape. Following the water-drip method developed by Bank et al. (Banks, W. A., et al., Techniques for collecting, rearing, and handling imported fire ants, USDA SEA AATS-S-21 (1981)), ants were separated and then placed in a 44.5×60.0×13.0 cm plastic tray with inside walls coated with Fluon® (Ag Fluoropolymers, Chadds Ford, Pa.). Distilled water and 15% (w/v) sucrose water solution in separated test tubes which were plugged with cotton balls were placed in the trays. Heliocoverpa zea (Boddie) and tobacco budworm, Heliothis virescens (Fabricius) pupae were used as food sources. Inside each tray were one to three 14.0×2.0 cm Petri dishes with 1.0 cm of hardener dental plaster (Castone®; Dentsply International Inc. York, Pa.) on the bottom. Also, in the center of the Petri dish was a 5.0-cm diameter brood chamber. Two 8-mm access holes were made on the wall of the petri dish above the dental plaster. The Petri dish lid was painted black (1302 Gloss Black Spray Enamel, Louisville, Ky.)to block the light. All colonies were maintained at 22-25° C.
(§4) Fire ant workers dug and removed sand from the tube through the entry hole. The differences in the amount of removed sand among treated and control tubes were used to evaluate chemical repellency. Four 2 ml centrifuge tubes were mounted under a 14.0×2.3 cm Petri dish using glue (Arrow Fastener Co., inc., Saddle Brook, N.J.). Tubes were 5.0 cm away from the center of the Petri dish and at equal distance from each other. A 3-mm diameter access hole was drilled for each centrifuge tube, which went through the bottom of the Petri dish and the cap of the tube. The inner side of the Petri dish was coated with Fluon. Three concentrations of a test compound and one control were set up in each apparatus. Six concentrations, including […], 6.25, 12.50, and 25.00 ppm, were tested in two separated bioassays for each species and hybrid; however three more concentrations of callicarpenal, 50.00, 100.00, and […], were tested for S. invicta. Sand (Premium Play Sand, Plassein International, Longview, Tex.) was first sieved through a ™35 U.S.A. standard testing sieve (Thomas Scientific, Swedesboro, N.J.) and then washed with distilled water and dried at 350° C. for 12 h. A 3 ml dichloromethane solution of callicarpenal or intermedeol was mixed with 30 g sand in an aluminum pan. The sand was stirred every 2 min to facilitate the evaporation of the solvent under a fume hood. After dichloromethane evaporated (5 minutes), 1.92 ml distilled water was added and mixed with sand. Sand in the control tube was treated only with dichloromethane. In each tube a mean (±SD) 2.78 g (±0.06 g) wet sand was added. There was no open space inside the tube. Locations of each concentration were randomized. Fifty fire ant workers were introduced into the center of the Petri Dish. The experiment was conducted at 22±0.8° C. (mean±SD) temperature and 45.4%±11.87% relative humidity. After 24 h, sand in each vial was collected, dried at 150° C. for at least 4 hour, and weighed. […]

[2] = tested on: black imported fire ants, Solenopsis richteri Forel; test: Multiple-choice digging bioassay, fire ant workers; format: in vivo
Method: as §1, §3, §4

[3] = tested on: red imported fire ants, Solenopsis invicta Buren; test: Multiple-choice digging bioassay, fire ant workers; format: in vivo
Method: as §1, §3, §4

[4] = tested on: hybrid (S. invicta×S. richteri); test: Two-choice digging bioassay, head-to-head against octanoic acid; format: in vivo; conditions: 25.00 ppm; all hybrid colonies; FIG. 4
Method: as §1, §2

For `C=C(C)C1CCC2(C)CCCC(C)(O)C2C1` [intermedeol, (4S,5S,7R,10S)-eudesm-11-en-4-ol], the “repellency compared with octanoic acid (in words)” value (S. richteri) was “significantly greater repellency than octanoic acid”, the “Sand removed (SE), mean weight of sand removed by ants 24 h after release” value (shortened to “Sand removed (SE), mean weight”) ([1]; Hybrid colony 1, Exp. 23, 0.75 ppm) was 0.43 (0.15) g and the “Sand removed (SE), mean weight” value ([1]; Hybrid colony 1, Exp. 23, 1.50 ppm) was 0.10 (0.03)* g. The “Sand removed (SE), mean weight” value ([1]; Hybrid colony 1, Exp. 23, 3.15 ppm) was 0.10 (0.03)* g, the “Sand removed (SE), mean weight” value ([1]; Hybrid colony 1, Exp. 24, 6.25 ppm) was 0.45 (0.08)* g and the “Sand removed (SE), mean weight” value ([1]; Hybrid colony 1, Exp. 24, 12.50 ppm) was 0.37 (0.04)* g. The “Sand removed (SE), mean weight” value ([1]; Hybrid colony 1, Exp. 24, 25.00 ppm) was 0.20 (0.09)* g, the “Sand removed (SE), mean weight” value ([1]; Hybrid colony 2, Exp. 25, 0.75 ppm) was 0.34 (0.14) g and the “Sand removed (SE), mean weight” value ([1]; Hybrid colony 2, Exp. 25, 1.50 ppm) was 0.25 (0.10) g. The “Sand removed (SE), mean weight” value ([1]; Hybrid colony 2, Exp. 25, 3.15 ppm) was 0.28 (0.09) g, the “Sand removed (SE), mean weight” value ([1]; Hybrid colony 2, Exp. 26, 6.25 ppm) was 0.20 (0.08)* g and the “Sand removed (SE), mean weight” value ([1]; Hybrid colony 2, Exp. 26, 12.50 ppm) was 0.10 (0.04)* g. For the same molecule, the “Sand removed (SE), mean weight” value ([1]; Hybrid colony 2, Exp. 26, 25.00 ppm) was 0.04 (0.01)* g, the “Sand removed (SE), mean weight” value ([2]; S. richteri colony 1, Exp. 19, 0.75 ppm) was 0.10 (0.06) g and the “Sand removed (SE), mean weight” value ([2]; S. richteri colony 1, Exp. 19, 1.50 ppm) was 0.46 (0.18) g. For the same molecule, the “Sand removed (SE), mean weight” value ([2]; S. richteri colony 1, Exp. 19, 3.15 ppm) was 0.24 (0.11) g, the “Sand removed (SE), mean weight” value ([2]; S. richteri colony 1, Exp. 20, 6.25 ppm) was 0.16 (0.10)* g and the “Sand removed (SE), mean weight” value ([2]; S. richteri colony 1, Exp. 20, 12.50 ppm) was 0.07 (0.04)* g. The “Sand removed (SE), mean weight” value ([2]; S. richteri colony 1, Exp. 20, 25.00 ppm) was 0.04 (0.01)* g, the “Sand removed (SE), mean weight” value ([2]; S. richteri colony 2, Exp. 21, 0.75 ppm) was 0.16 (0.12) g and the “Sand removed (SE), mean weight” value ([2]; S. richteri colony 2, Exp. 21, 1.50 ppm) was 0.26 (0.17) g. The “Sand removed (SE), mean weight” value ([2]; S. richteri colony 2, Exp. 21, 3.15 ppm) was 0.17 (0.16) g, the “Sand removed (SE), mean weight” value ([2]; S. richteri colony 2, Exp. 22, 6.25 ppm) was 0.02 (0.01)* g and the “Sand removed (SE), mean weight” value ([2]; S. richteri colony 2, Exp. 22, 12.50 ppm) was 0.14 (0.07)* g. The “Sand removed (SE), mean weight” value ([2]; S. richteri colony 2, Exp. 22, 25.00 ppm) was 0.02 (0.02)* g, the “Sand removed (SE), mean weight” value ([3]; S. invicta colony 1, Exp. 15, 0.75 ppm) was 0.56 (0.06) g and the “Sand removed (SE), mean weight” value ([3]; S. invicta colony 1, Exp. 15, 1.50 ppm) was 0.36 (0.09)* g. For the same molecule, the “Sand removed (SE), mean weight” value ([3]; S. invicta colony 1, Exp. 15, 3.15 ppm) was 0.20 (0.06)* g, the “Sand removed (SE), mean weight” value ([3]; S. invicta colony 1, Exp. 16, 6.25 ppm) was 0.66 (0.15)* g and the “Sand removed (SE), mean weight” value ([3]; S. invicta colony 1, Exp. 16, 12.50 ppm) was 0.25 (0.13)* g. The “Sand removed (SE), mean weight” value ([3]; S. invicta colony 1, Exp. 16, 25.00 ppm) was 0.18 (0.09)* g, the “Sand removed (SE), mean weight” value ([3]; S. invicta colony 2, Exp. 17, 0.75 ppm) was 0.44 (0.10)* g and the “Sand removed (SE), mean weight” value ([3]; S. invicta colony 2, Exp. 17, 1.50 ppm) was 0.35 (0.08)* g. The “Sand removed (SE), mean weight” value ([3]; S. invicta colony 2, Exp. 17, 3.15 ppm) was 0.35 (0.12)* g, the “Sand removed (SE), mean weight” value ([3]; S. invicta colony 2, Exp. 18, 6.25 ppm) was 0.17 (0.08)* g and the “Sand removed (SE), mean weight” value ([3]; S. invicta colony 2, Exp. 18, 12.50 ppm) was 0.02 (0.01)* g. For the same molecule, the “Sand removed (SE), mean weight” value ([3]; S. invicta colony 2, Exp. 18, 25.00 ppm) was 0.04 (0.01)* g and the “repellency compared with octanoic acid (in words)” value [4] was “significantly greater repellency than octanoic acid”.
